In PubChem BioAssay (NCI):
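Results reflect a 48-hour exposure of cells in 96-well plates to compound at five concentrations. At the TGI there is no net growth.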

What was measured:
Assay in all cases: DTP human tumour cell line panel, 48 h
CAKI-1 renal = system: CAKI-1 renal
DU-145 prostate = system: DU-145 prostate
HOP-62 NSCLC = system: HOP-62 NSCLC
MDA-N = system: MDA-N
NCI-H460 lung = system: NCI-H460 lung
OVCAR-3 ovarian = system: OVCAR-3 ovarian
SK-MEL-28 melanoma = system: SK-MEL-28 melanoma
SK-MEL-5 melanoma = system: SK-MEL-5 melanoma
SNB-19 CNS = system: SNB-19 CNS
SNB-75 CNS = system: SNB-75 CNS

| Compound | TGI (CAKI-1 renal) [µM] | TGI (DU-145 prostate) [µM] | TGI (HOP-62 NSCLC) [µM] | TGI (MDA-N) [µM] | TGI (NCI-H460 lung) [µM] | TGI (OVCAR-3 ovarian) [µM] | TGI (SK-MEL-28 melanoma) [µM] | TGI (SK-MEL-5 melanoma) [µM] | TGI (SNB-19 CNS) [µM] | TGI (SNB-75 CNS) [µM] |
| --- | --- | --- | --- | --- | --- | --- | --- | --- | --- | --- |
| OC(O)(C(F)(F)F)C(F)(F)F | > 100 | > 100 | > 100 | > 100 | > 100 | > 100 | > 100 | > 100 | > 100 | > 100 |
| Cc1nn(-c2ccccn2)c2c1C(SC#N)=C(C=O)CC2 | 19 | 28.2 | 22.3 | 38.6 | 34.9 | 26.5 | 45.9 | 28.2 | 47.8 | 30.1 |
| CCOC(=O)N1C(=S)C(C(=O)OC)(C(=O)OC)N=C1C | > 100 | > 100 | > 100 | > 100 | > 100 | > 100 | > 100 | > 100 | > 100 | > 100 |
| CCOC(=O)c1cc(-c2ccn(C(C)=O)c2)c(-c2cc(C)co2)[nH]1 | > 100 | > 100 | > 100 | > 100 | > 100 | > 100 | > 100 | > 100 | > 100 | > 100 |
| COC(=O)[C@@H]1O[C@]12[C@@H](CO[Si](C)(C)C(C)(C)C)O[C@@H](n1cc(C)c(=O)[nH]c1=O)[C@@H]2O[Si](C)(C)C(C)(C)C | 70 | 39 | 70.7 | 27.6 | > 100 | 31.1 | 38.5 | 38.5 | 26 | > 100 |
| c1ccc2c(c1)c1c3n2-c2cc(on2)C3CCC1 (stereo not given) | > 100 | > 100 | > 100 | > 100 | > 100 | > 100 | > 100 | > 100 | > 100 | > 100 |
| COC(=O)C(C(=O)OC)C1CC(=O)c2c(Br)sc(Br)c21 (stereo not given) | 21.1 | 34.8 | 46.3 | > 100 | 40.4 | 17.5 | 34.2 | 28.3 | 47.3 | 75 |
| COc1ccc(C(C)NNC(=O)c2ccncc2)cc1F (stereo not given) | > 100 | > 100 | > 100 | > 100 | > 100 | > 100 | > 100 | > 100 | > 100 | > 100 |
| O=c1oc2ccccc2c(O)c1Cc1cccc(Cc2c(O)c3ccccc3oc2=O)c1 | > 100 | > 100 | > 100 | > 100 | > 100 | > 100 | > 100 | > 100 | > 100 | > 100 |
| Cn1c(=O)c2[nH]c(CCC(=O)O)nc2n(C)c1=O | > 100 | > 100 | > 100 | > 100 | > 100 | > 100 | > 100 | > 100 | > 100 | > 100 |
| COC(=O)C1[C@H](C(=O)OC)C1(Br)CBr (stereo not given in full) | > 100 | > 100 | > 100 | > 100 | > 100 | > 100 | > 100 | > 100 | > 100 | > 100 |
| CCOC(=O)C1=C(C)N(c2ccc(C)cc2)C2(O)C=CC(=O)C3=C(O)c4ccccc4C(=O)C312 (stereo not given) | > 100 | 55.7 | > 100 | 69.5 | > 100 | > 100 | 60.2 | 42.1 | 80.2 | 68.6 |
| O=C(NCc1cccnc1)C(=O)NCc1cccnc1 | > 100 | > 100 | > 100 | > 100 | > 100 | > 100 | > 100 | > 100 | > 100 | > 100 |
| N#Cc1c(-c2ccc(Cl)cc2)cc(-c2nc3ccccc3[nH]2)nc1N | 46.6 | 20.2 | 38.5 | 23.7 | 21.6 | 41.8 | 36 | 20.6 | 27.5 | 31.2 |
| O=C(NC/C=C/Br)NC1CCNc2ccccc21 (stereo not given) | > 100 | > 100 | > 100 | > 100 | > 100 | > 100 | > 100 | 37.7 | > 100 | > 100 |
| CC(C)c1nccn1Cc1ccc(Cl)cc1Cl | > 100 | > 100 | > 100 | > 100 | > 100 | > 100 | > 100 | 34.9 | > 100 | 85 |
| COc1ccc(C2NC(=O)Nc3c2c(=O)oc2c3ccc3ccccc32)cc1 (stereo not given) | > 100 | > 100 | > 100 | > 100 | > 100 | > 100 | > 100 | > 100 | > 100 | 75.8 |

| Compound | TGI (CAKI-1 renal) [µM] | TGI (DU-145 prostate) [µM] | TGI (HOP-62 NSCLC) [µM] | TGI (MDA-N) [µM] | TGI (NCI-H460 lung) [µM] | TGI (OVCAR-3 ovarian) [µM] | TGI (SK-MEL-28 melanoma) [µM] | TGI (SK-MEL-5 melanoma) [µM] | TGI (SNB-19 CNS) [µM] | TGI (SNB-75 CNS) [µM] |
| --- | --- | --- | --- | --- | --- | --- | --- | --- | --- | --- |
| O=C1C(=Cc2ccccc2[N+](=O)[O-])N=C(c2ccccc2)N1n1c(-c2ccccc2)nc2ccccc2c1=O | > 100 | > 100 | > 100 | > 100 | 99.1 | > 100 | > 100 | > 100 | > 100 | > 100 |
| Cc1cccc(C(O)c2cccnc2)c1O (stereo not given) | > 100 | > 100 | > 100 | > 100 | > 100 | > 100 | > 100 | > 100 | > 100 | > 100 |
| COC(=O)C1=C(C)NC2(C)OC(C)(O)C(C(C)=O)C12C(C)=O (stereo not given) | > 100 | > 100 | > 100 | > 100 | > 100 | > 100 | > 100 | > 100 | > 100 | > 100 |
| COc1cc2c(cc1O)CC[C@@H]1C2CC[C@@]2(C)C1CC[C@@H]2O (stereo not given in full) | > 97.4 | > 100 | 45.8 | 0.574 | > 72.7 | 7.17 | > 100 | 36.7 | > 100 | 22.1 |
| C[C@@H]1OCC(O)C([C@H]2OC(c3ccccc3)=N[C@H]2CO)O1 (stereo not given in full) | > 100 | > 100 | > 100 | > 100 | > 100 | > 100 | > 100 | > 100 | > 100 | > 100 |
| COc1cc(-c2[o+]c3cc(O)cc(OC4OC(CO)C(O)C(O)C4O)c3cc2OC2OC(CO)C(O)C(O)C2O)cc(OC)c1O (stereo not given) | > 100 | > 100 | > 100 | > 100 | > 100 | > 100 | > 100 | > 100 | > 100 | > 100 |
| C=C1C(=O)O[C@H]2[C@H]([C@H](C)CCCC(C)=O)O[C@H]([C@@]3(C)CCC(=O)O3)C[C@@H]12 | 54.3 | > 100 | > 100 | > 100 | > 100 | > 100 | > 100 | > 100 | > 100 | > 100 |
| COC(=O)/C=C\C(C#N)(C#N)N=Cc1ccsc1 | 6.07 | 21.5 | 30.9 | 8.66 | 33.6 | 5.37 | 7.43 | 15.5 | 27.6 | 29.5 |
| CC1(C)O[C@@H](CP(c2cccc3ccccc23)c2cccc3ccccc23)[C@H](CP(c2cccc3ccccc23)c2cccc3ccccc23)O1 | > 100 | > 100 | > 100 | > 100 | > 100 | > 100 | > 100 | > 100 | > 100 | > 100 |
| O=C(Nc1nc(C23CC4CC(CC(C4)C2)C3)cs1)c1cc2cc([N+](=O)[O-])ccc2oc1=O | > 100 | > 100 | > 100 | > 100 | > 100 | > 100 | > 100 | 96.9 | > 100 | 74.9 |
| O=C(NCc1ccccc1)c1c(O)c2ccccc2[nH]c1=O | > 100 | > 100 | > 100 | > 100 | > 100 | > 100 | > 100 | > 100 | > 100 | > 100 |
| COC1=CC(=O)c2c(cc(COP(=O)(N(C)CCBr)N(C)CCBr)n2C)C1=O | 2.26 | 19.5 | 5.23 | 2.77 | 9.44 | 10.7 | 3.51 | 2.33 | 14.7 | 0.971 |
| CSc1ccccc1P(CCP(c1ccccc1SC)c1ccccc1SC)c1ccccc1SC | > 100 | > 100 | > 100 | > 100 | > 80.1 | > 33.5 | > 100 | > 70.1 | > 100 | > 55.6 |
| Cc1nnc(CC#N)n1NC(=O)CC#N | > 100 | > 100 | > 100 | > 100 | > 100 | > 100 | > 100 | > 100 | > 100 | > 100 |
| COC(=O)C[C@H](CCSC)NC(=O)C[C@H](CCSC)NC(=O)C[C@H](CCSC)NC(=O)OC(C)(C)C | > 100 | > 100 | > 100 | > 100 | > 100 | 48 | > 100 | > 100 | 51.5 | 29 |
| Nc1ccc(-c2nc3ccccc3s2)cc1 | > 67.8 | 31.6 | 60.3 | 35.2 | 43.1 | 33.3 | 33 | 50.1 | 61.5 | 58.1 |
